pIC50: −log10 of the molar value.
System: Endogenous Huntingtin Protein
Assay: Endogenous Huntingtin Protein Assay (ELISA-based MSD electrochemiluminescence)
Format: cell-based
Conditions: Table 1
How it was run: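 Sandwich MSD electrochemiluminescence immunoassay. Capture used MW1 (expanded polyglutamine) or MAB2166 antibody coated at 1 μg/mL overnight at 4 °C. Samples were bound overnight at 4 °C, then a rabbit monoclonal detection antibody and SULFO-TAG anti-rabbit, each at 0.25 μg/mL, were applied for 1 h at room temperature.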

Row | Compound | pIC50
1 | COc1cc(-c2cc(C)c3nn(C)cc3c2)cc2sc(C3=CCNCC3)nc12 [Compound 98, 6-(2,7-dimethyl-2H-indazol-5-yl)-4-methoxy-2-(1,2,3,6-tetrahydropyridin-4-yl)-1,3-benzothiazole] | 6.30 to 7.00
2 | COc1cc(-c2cc(C)c3nn(C)cc3c2)cc2sc(C3CCNCC3)nc12 [Compound 99, 6-(2,7-dimethyl-2H-indazol-5-yl)-4-methoxy-2-(piperidin-4-yl)-1,3-benzothiazole] | 5.52 to 6.00
3 | Cc1cc(-c2cc(O)c3nc(C4=CCNCC4)sc3c2)cc2cn(C)nc12 [Compound 100, 6-(2,7-dimethyl-2H-indazol-5-yl)-2-(1,2,3,6-tetrahydropyridin-4-yl)-1,3-benzothiazol-4-ol] | 6.00 to 6.30
4 | Cc1cc(-c2ncc3nc(N(C)C4CC(C)(C)NC(C)(C)C4)sc3c2F)cc2cn(C)nc12 [Compound 101, 6-(2,7-dimethyl-2H-indazol-5-yl)-7-fluoro-N-methyl-N-(2,2,6,6-tetramethylpiperidin-4-yl)[1,3]thiazolo[4,5-c]pyridin-2-amine] | 6.30 to 7.00
5 | Cn1cc2cc(-c3cc(F)c4nc(C5=CCNCC5)sc4c3)cc(C#N)c2n1 [Compound 102, 5-[4-fluoro-2-(1,2,3,6-tetrahydropyridin-4-yl)-1,3-benzothiazol-6-yl]-2-methyl-2H-indazole-7-carbonitrile] | ≥ 7.00
6 | Cn1cc2cc(-c3cc(F)c4nc(C5CCNCC5)sc4c3)cc(CN)c2n1 [Compound 103, 1-{5-[4-fluoro-2-(piperidin-4-yl)-1,3-benzothiazol-6-yl]-2-methyl-2H-indazol-7-yl}methanamine] | ≥ 7.00
7 | Cn1cc2cc(-c3cc(F)c4nc(C5CCNCC5)sc4c3)cc(C#N)c2n1 [Compound 104, 5-[4-fluoro-2-(piperidin-4-yl)-1,3-benzothiazol-6-yl]-2-methyl-2H-indazole-7-carbonitrile] | ≥ 7.00
8 | Cc1cn2cc(-c3cc4sc(N(C)C5CC(C)(C)NC(C)(C)C5)nc4cn3)cnc2n1 [Compound 105, N-methyl-6-(2-methylimidazo[1,2-a]pyrimidin-6-yl)-N-(2,2,6,6-tetramethylpiperidin-4-yl)[1,3]thiazolo[4,5-c]pyridin-2-amine] | 6.30 to 7.00
9 | CCN1CCC(c2nc3c(F)cc(-c4ccc5nc(C)cn5n4)cc3s2)CC1 [Compound 106, 6-[2-(1-ethylpiperidin-4-yl)-4-fluoro-1,3-benzothiazol-6-yl]-2-methylimidazo[1,2-b]pyridazine] | ≥ 7.00
10 | Cc1cn2nc(-c3cc(F)c4nc(C5CCN(C)CC5)sc4c3)cc(C)c2n1 [Compound 107, 6-[4-fluoro-2-(1-methylpiperidin-4-yl)-1,3-benzothiazol-6-yl]-2,8-dimethylimidazo[1,2-b]pyridazine] | ≥ 7.00
11 | Cc1cc(-c2ccc3nc(N(C)C4CCN(C)C(C)C4)sc3c2)cc2cn(C)nc12 (centres unmarked) [Compound 108, 6-(2,7-dimethyl-2H-indazol-5-yl)-N-(1,2-dimethylpiperidin-4-yl)-N-methyl-1,3-benzothiazol-2-amine] | 6.00 to 6.30
12 | Cn1cc2cc(-c3ncc4nc(C5CCNCC5)sc4n3)cc(C#N)c2n1 [Compound 109, 2-methyl-5-[2-(piperidin-4-yl)[1,3]thiazolo[5,4-d]pyrimidin-5-yl]-2H-indazole-7-carbonitrile] | 6.30 to 7.00
13 | Cc1cc(-c2ncc3nc(C4CCNCC4)sc3n2)cc2cn(C)nc12 [Compound 110, 5-(2,7-dimethyl-2H-indazol-5-yl)-2-(piperidin-4-yl)[1,3]thiazolo[5,4-d]pyrimidine] | 6.30 to 7.00
14 | Cc1cn2cc(-c3ccc4nc(N(C)C5CC(C)(C)NC(C)(C)C5)sc4c3)cc(F)c2n1 [Compound 111, 6-(8-fluoro-2-methylimidazo[1,2-a]pyridin-6-yl)-N-methyl-N-(2,2,6,6-tetramethylpiperidin-4-yl)-1,3-benzothiazol-2-amine] | ≥ 7.00
15 | Cc1nc2ccc(-c3ccc4nc(C5CCNCC5)sc4c3)cc2o1 [Compound 112, 2-methyl-6-[2-(piperidin-4-yl)-1,3-benzothiazol-6-yl]-1,3-benzoxazole] | 6.30 to 7.00
16 | Cc1cn2cc(-c3ccc4nc(C5CCNCC5)sc4c3)cc(F)c2n1 [Compound 113, 6-(8-fluoro-2-methylimidazo[1,2-a]pyridin-6-yl)-2-(piperidin-4-yl)-1,3-benzothiazole] | ≥ 7.00
17 | Cc1cn2cc(-c3ccc4nc(C5CCNCC5)sc4c3)cc(C)c2n1 [Compound 114, 6-(2,8-dimethylimidazo[1,2-a]pyridin-6-yl)-2-(piperidin-4-yl)-1,3-benzothiazole] | ≥ 7.00
18 | Cn1cc2cc(-c3ccc4nc(C5CCNC(C)(C)C5)sc4c3)ccc2n1 (centres unmarked) [Compound 115, 2-(2,2-dimethylpiperidin-4-yl)-6-(2-methyl-2H-indazol-5-yl)-1,3-benzothiazole] | 6.00 to 6.30

Row | Compound | pIC50
19 | Cc1cn2cc(-c3cc4sc(N(C)C5CC(C)(C)NC(C)(C)C5)nc4cn3)cc(C(F)(F)F)c2n1 [Compound 116, N-methyl-6-[2-methyl-8-(trifluoromethyl)imidazo[1,2-a]pyridin-6-yl]-N-(2,2,6,6-tetramethylpiperidin-4-yl)[1,3]thiazolo[4,5-c]pyridin-2-amine] | 6.30 to 7.00
20 | CN(c1nc2cnc(-c3cc(C#N)c4nn(C)cc4c3)cc2s1)C1CC(C)(C)NC(C)(C)C1 [Compound 117, 2-methyl-5-{2-[methyl(2,2,6,6-tetramethylpiperidin-4-yl)amino][1,3]thiazolo[4,5-c]pyridin-6-yl}-2H-indazole-7-carbonitrile] | ≥ 7.00
21 | Cc1cc(-c2cc3sc(N(C)C4CC(C)(C)NC(C)(C)C4)nc3nn2)cc2cn(C)nc12 [Compound 118, 3-(2,7-dimethyl-2H-indazol-5-yl)-N-methyl-N-(2,2,6,6-tetramethylpiperidin-4-yl)[1,3]thiazolo[4,5-c]pyridazin-6-amine] | 6.30 to 7.00
22 | CN(c1nc2nnc(-c3ccc(-c4cn[nH]c4)cc3O)cc2s1)C1CC(C)(C)NC(C)(C)C1 [Compound 119, 2-{6-[methyl(2,2,6,6-tetramethylpiperidin-4-yl)amino][1,3]thiazolo[4,5-c]pyridazin-3-yl}-5-(1H-pyrazol-4-yl)phenol] | ≥ 7.00
23 | Cc1cn2nc(-c3cc(F)c4nc(N5CCNCC5)sc4c3)cc(C)c2n1 [Compound 120, 6-[4-fluoro-2-(piperazin-1-yl)-1,3-benzothiazol-6-yl]-2,8-dimethylimidazo[1,2-b]pyridazine] | ≥ 7.00
24 | Cc1cn2nc(-c3cc(F)c4nc(N5CCCNCC5)sc4c3)cc(C)c2n1 [Compound 121, 6-[2-(1,4-diazepan-1-yl)-4-fluoro-1,3-benzothiazol-6-yl]-2,8-dimethylimidazo[1,2-b]pyridazine] | ≥ 7.00
25 | Cc1cc(-c2ncc3nc(N(C)C4CC(C)(C)NC(C)(C)C4)sc3n2)cc2cn(C)nc12 [Compound 122, 5-(2,7-dimethyl-2H-indazol-5-yl)-N-methyl-N-(2,2,6,6-tetramethylpiperidin-4-yl)[1,3]thiazolo[5,4-d]pyrimidin-2-amine] | 6.30 to 7.00
26 | CN(c1nc2cnc(-c3cc(C#N)c4nn(C)cc4c3)nc2s1)C1CC(C)(C)NC(C)(C)C1 [Compound 123, 2-methyl-5-{2-[methyl(2,2,6,6-tetramethylpiperidin-4-yl)amino][1,3]thiazolo[5,4-d]pyrimidin-5-yl}-2H-indazole-7-carbonitrile] | ≥ 7.00
27 | CN(c1nc2cnc(-c3cc(F)c4nn(C)cc4c3)nc2s1)C1CC(C)(C)NC(C)(C)C1 [Compound 124, 5-(7-fluoro-2-methyl-2H-indazol-5-yl)-N-methyl-N-(2,2,6,6-tetramethylpiperidin-4-yl)[1,3]thiazolo[5,4-d]pyrimidin-2-amine] | ≥ 7.00
28 | Cc1cn2nc(-c3cc(F)c4nc(N5CCNC6(CC6)C5)sc4c3)cc(C)c2n1 [Compound 125, 6-[2-(4,7-diazaspiro[2.5]oct-7-yl)-4-fluoro-1,3-benzothiazol-6-yl]-2,8-dimethylimidazo[1,2-b]pyridazine] | 6.30 to 7.00
29 | Cn1cc2cc(-c3cc(F)c4nc(C5CCNCC5)sc4c3)cc(F)c2n1 [Compound 126, 4-fluoro-6-(7-fluoro-2-methyl-2H-indazol-5-yl)-2-(piperidin-4-yl)-1,3-benzothiazole] | ≥ 7.00
30 | Cc1cn2nc(-c3cc(F)c4nc(N(C)C5CC(C)(C)NC(C)(C)C5)sc4c3)cc(C)c2n1 [Compound 127, 6-(2,8-dimethylimidazo[1,2-b]pyridazin-6-yl)-4-fluoro-N-methyl-N-(2,2,6,6-tetramethylpiperidin-4-yl)-1,3-benzothiazol-2-amine] | ≥ 7.00
31 | CN(c1nc2ccc(-c3cc(F)c4nn(C)cc4c3)nc2s1)C1CC(C)(C)NC(C)(C)C1 [Compound 128, 5-(7-fluoro-2-methyl-2H-indazol-5-yl)-N-methyl-N-(2,2,6,6-tetramethylpiperidin-4-yl)[1,3]thiazolo[5,4-b]pyridin-2-amine] | 6.30 to 7.00
32 | Cc1cn2cc(-c3ccc4nc(N(C)C5CC(C)(C)NC(C)(C)C5)sc4n3)ccc2n1 [Compound 129, N-methyl-5-(2-methylimidazo[1,2-a]pyridin-6-yl)-N-(2,2,6,6-tetramethylpiperidin-4-yl)[1,3]thiazolo[5,4-b]pyridin-2-amine] | 6.00 to 6.30
33 | CN(c1nc2ncc(-c3ccc(-c4cn[nH]c4)cc3O)nc2s1)C1CC(C)(C)NC(C)(C)C1 [Compound 130, 2-{2-[methyl(2,2,6,6-tetramethylpiperidin-4-yl)amino][1,3]thiazolo[4,5-b]pyrazin-6-yl}-5-(1H-pyrazol-4-yl)phenol] | ≥ 7.00
34 | Cc1cc(-c2cnc3nc(N(C)C4CC(C)(C)NC(C)(C)C4)sc3n2)cc2cn(C)nc12 [Compound 131, 6-(2,7-dimethyl-2H-indazol-5-yl)-N-methyl-N-(2,2,6,6-tetramethylpiperidin-4-yl)[1,3]thiazolo[4,5-b]pyrazin-2-amine] | ≥ 7.00
35 | Cc1cn2nc(-c3cc(F)c4nc(N5CC(C)NC(C)C5)sc4c3)cc(C)c2n1 (centres unmarked) [Compound 132, 6-[2-(3,5-dimethylpiperazin-1-yl)-4-fluoro-1,3-benzothiazol-6-yl]-2,8-dimethylimidazo[1,2-b]pyridazine] | ≥ 7.00

From US12139499B2, “Heteroaryl compounds for treating Huntington's disease” (PTC THERAPEUTICS, INC., priority 2018, dated 2024)
